Experimental data as given in patent publication US9828348B2, “Benzimidazole derivatives and use thereof” (priority 2013, dated 2017).

molecular target: human Nav1.7 (Homo sapiens (Human), UniProt Q15858); assay: FLIPR or FLIPR TETRA sodium dye assay with KCl and test article pre-incubation; type: cell-based; settings: read-out: Nav1.7 Activity (μM) FLIPR assay IC50 (μM) ± SEM
Sequence (Q15858 with tags, fused parts or gaps limits assumed): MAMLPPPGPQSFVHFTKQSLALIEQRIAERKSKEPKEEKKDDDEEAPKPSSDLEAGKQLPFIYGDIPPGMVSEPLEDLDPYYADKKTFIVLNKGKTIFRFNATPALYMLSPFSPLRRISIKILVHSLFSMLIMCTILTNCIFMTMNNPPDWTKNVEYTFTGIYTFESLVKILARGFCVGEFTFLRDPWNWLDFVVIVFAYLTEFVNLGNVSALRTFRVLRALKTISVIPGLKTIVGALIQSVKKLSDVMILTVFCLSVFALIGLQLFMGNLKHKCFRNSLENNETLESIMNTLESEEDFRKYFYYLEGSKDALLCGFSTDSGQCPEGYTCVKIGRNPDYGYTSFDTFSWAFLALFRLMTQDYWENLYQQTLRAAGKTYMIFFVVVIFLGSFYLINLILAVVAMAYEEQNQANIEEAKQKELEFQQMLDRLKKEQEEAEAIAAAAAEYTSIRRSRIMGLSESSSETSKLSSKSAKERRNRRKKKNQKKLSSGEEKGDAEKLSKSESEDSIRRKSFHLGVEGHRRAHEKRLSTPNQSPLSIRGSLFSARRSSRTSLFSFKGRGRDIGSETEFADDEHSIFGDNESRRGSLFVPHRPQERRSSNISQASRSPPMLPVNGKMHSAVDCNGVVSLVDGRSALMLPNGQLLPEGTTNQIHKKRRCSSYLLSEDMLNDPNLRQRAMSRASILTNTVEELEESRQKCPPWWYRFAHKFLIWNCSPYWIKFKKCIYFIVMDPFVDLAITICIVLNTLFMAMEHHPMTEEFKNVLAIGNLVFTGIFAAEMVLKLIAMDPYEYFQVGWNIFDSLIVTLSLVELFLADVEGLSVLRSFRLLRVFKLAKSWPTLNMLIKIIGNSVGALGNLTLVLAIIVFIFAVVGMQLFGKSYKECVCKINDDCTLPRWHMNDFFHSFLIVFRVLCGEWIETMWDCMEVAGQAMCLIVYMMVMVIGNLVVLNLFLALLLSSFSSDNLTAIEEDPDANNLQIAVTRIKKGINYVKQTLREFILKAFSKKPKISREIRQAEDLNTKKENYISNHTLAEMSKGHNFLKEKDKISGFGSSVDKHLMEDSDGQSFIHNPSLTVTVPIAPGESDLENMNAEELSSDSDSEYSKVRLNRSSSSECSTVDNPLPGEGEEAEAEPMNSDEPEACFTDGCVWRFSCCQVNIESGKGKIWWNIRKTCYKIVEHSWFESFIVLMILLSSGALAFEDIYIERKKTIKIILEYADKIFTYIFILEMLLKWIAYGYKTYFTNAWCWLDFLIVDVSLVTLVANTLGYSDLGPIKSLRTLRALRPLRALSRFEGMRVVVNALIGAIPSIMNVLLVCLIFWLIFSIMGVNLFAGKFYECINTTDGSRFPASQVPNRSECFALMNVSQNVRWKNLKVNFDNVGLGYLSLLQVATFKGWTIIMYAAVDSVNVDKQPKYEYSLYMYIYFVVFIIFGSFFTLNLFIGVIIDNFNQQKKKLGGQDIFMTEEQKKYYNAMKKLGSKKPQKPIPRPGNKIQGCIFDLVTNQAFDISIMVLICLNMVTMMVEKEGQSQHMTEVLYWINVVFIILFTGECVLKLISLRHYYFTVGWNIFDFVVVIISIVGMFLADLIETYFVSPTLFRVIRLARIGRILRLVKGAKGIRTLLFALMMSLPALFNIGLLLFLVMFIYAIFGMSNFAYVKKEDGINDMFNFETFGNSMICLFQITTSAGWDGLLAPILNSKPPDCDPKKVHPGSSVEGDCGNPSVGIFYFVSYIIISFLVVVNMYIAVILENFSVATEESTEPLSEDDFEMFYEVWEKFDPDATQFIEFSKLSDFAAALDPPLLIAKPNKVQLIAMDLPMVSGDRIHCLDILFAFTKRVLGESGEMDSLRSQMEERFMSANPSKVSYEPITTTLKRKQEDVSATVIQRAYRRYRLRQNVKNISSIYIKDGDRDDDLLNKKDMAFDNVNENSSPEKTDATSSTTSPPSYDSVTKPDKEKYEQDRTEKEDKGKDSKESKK

Row | Compound | IC50 [µM]
1 | Fc1ccc(Oc2ccc(-n3c(-c4c[nH]cn4)nc4ccccc43)cc2)cc1 [Compound 11, 1-(4-(4-fluorophenoxy)phenyl)-2-(1H-imidazol-4-yl)-1H-benzo[d]imidazole] | 0.102 ± 0.022
2 | Cc1nnc(Cc2nc3ccccc3n2-c2ccc(Oc3ccc(F)cc3)cc2)[nH]1 [Compound 16, 1-(4-(4-fluorophenoxy)phenyl)-2-((5-methyl-4H-1,2,4-triazol-3-yl)methyl)-1H-benzo[d]imidazole] | 0.957 ± 0.092

same assay, conditions: recombinant human Nav1.7 in HEK293 cells; CoroNa Green sodium dye, KCl pre-incubation; veratridine and scorpion venom agonists; read-out: Nav1.7 Activity (μM) FLIPR assay IC50 (μM) ± SEM

Row | Compound | IC50 [µM]
3 | NC(=O)CN1CCC[C@H]1c1nc2ccccc2n1-c1ccc(Oc2ccc(F)cc2)cc1 [Compound 25, (S)-2-(2-(1-(4-(4-fluorophenoxy)phenyl)-1H-benzo[d]imidazol-2-yl)pyrrolidin-1-yl)acetamide] | 1.22 ± 0.035
4 | Fc1ccc(Oc2ccc(-n3c(C4CCOCC4)nc4ccccc43)cc2)cc1 [Compound 9, 1-(4-(4-fluorophenoxy)phenyl)-2-(tetrahydro-2H-pyran-4-yl)-1H-benzo[d]imidazole] | 0.63 ± 0.05
5 | Fc1ccc(Oc2ccc(-n3c(CCN4CCCCC4)nc4ccccc43)cc2)cc1 [Compound 17, 1-(4-(4-fluorophenoxy)phenyl)-2-(2-(piperidin-1-yl)ethyl)-1H-benzo[d]imidazole] | 0.081 ± 0.009
6 | CCN(CC)C(=O)CN1CCC(c2nc3ccccc3n2-c2ccc(Oc3ccc(F)cc3)cc2)CC1 [Compound 24, N,N-diethyl-2-(4-(1-(4-(4-fluorophenoxy)phenyl)-1H-benzo[d]imidazol-2-yl)piperidin-1-yl)acetamide] | 0.516 ± 0.029
7 | Cn1cc(Cl)c(-c2nc3ccccc3n2-c2ccc(Oc3ccc(F)cc3)cc2)n1 [Compound 10, 2-(4-chloro-1-methyl-1H-pyrazol-3-yl)-1-(4-(4-fluorophenoxy)phenyl)-1H-benzo[d]imidazole] | 0.313 ± 0.032
8 | NC(=O)CN1CCC(c2nc3ccccc3n2-c2ccc(Oc3ccc(F)cc3)cc2)CC1 [Compound 23, 2-(4-(1-(4-(4-fluorophenoxy)phenyl)-1H-benzo[d]imidazol-2-yl)piperidin-1-yl)acetamide] | 1.49 ± 0.225
9 | O=C1CC[C@@H](c2nc3ccccc3n2-c2ccc(Oc3ccc(F)cc3)cc2)N1 [Compound 14, (S)-5-(1-(4-(4-fluorophenoxy)-phenyl)-1H-benzo[d]imidazol-2-yl)pyrrolidin-2-one] | 0.571 ± 0.07
10 | Fc1ccc(Oc2ccc(-n3c(Cc4nnn[nH]4)nc4ccccc43)cc2)cc1 [Compound 15, 2-((1H-tetrazol-5-yl)methyl)-1-(4-(4-fluorophenoxy)phenyl)-1H-benzo[d]imidazole] | > 20
